In brackets after ≈: the same amount, converted by molar mass.
Assay: Solubility in ethyl acetate by fractionation and phase separation, HPLC analysis of the solvent layer
Format: physicochemical

Row | Compound | solubility in EA (ethyl acetate, mixture 10:1:2:2 dissolved at 30-100 g/L 1,3-propanediol, left alone for 2 hours, upper solvent layer analysed by HPLC) [g/L] | solubility at 2 h (organic solvent or mixture) [µg/mL]
1 | CC(O)CO (centres unmarked) [1,2-propanediol] | 5 to 7 | 
2 | OCC(O)CO [glycerol] |  | 3000 to 6000 (≈ 32.6 to 65.2 mM)

Source: US7488855B2 (CJ Corporation, priority 2004, dated 2009)
